Data as given in patent publication US8916527B2, “Antibiotic macrocycle compounds and methods of manufacture and use thereof” (Optimer Pharmaceuticals, Inc., priority 2007, dated 2014).
Read-outs that look alike come from different tables or passages of the source.

Columns and labels:
[1] = in vivo, po
[2] = system: E. faecium; assay: MIC profiling; conditions: Enterococcus faecium
[3] = system: Lactobacillus rhamnosus, ATCC 7496; assay: MIC, agar dilution method; format: cell-based
[4] = system: Staphylococcus aureus, Methicilin resistant clinical strain ORG#578; assay: MIC, microbroth dilution method
[5] = physchem; format: physicochemical; conditions: water; read-out: Aqueous solubility
[6] = system: S. aureus; assay: MIC profiling; conditions: Staphylococcus aureus
[7] = system: C. difficile ATCC strain 700057; assay: Effect of fecal material on in vitro activity, microbroth dilution MIC; format: cell-based; conditions: for MIC: Clostridioides difficile
[8] = system: ORG 150 B. fragilis 25285; assay: MIC, anaerobic panel, agar dilution method; format: cell-based; conditions: Bacteroides fragilis, Table 3, read-out: MIC, panel of anaerobic bacteria
[9] = system: Clostridium difficile, ATCC 43255; assay: MIC, agar dilution method; format: cell-based; conditions: Clostridioides difficile, ATCC43255
Description: (§1) Agar Dilution Method: (1)
(§2) This method was used for anaerobic organisms (Bacteroides, Clostridium, Bifidiobacteria, Prevotella, Fusobacterium, Peptococcus, Peptostreptococcus, Veillonella) and microaerophilic Lactobacillus spp, all of which were purchased form American Type Culture Collection (ATCC):
(§3) 1. Two fold dilutions of compounds were made in Brucella agar supplemented with hemin, vitamin K and 5% laked sheep blood to achieve a final concentration range from 0.016 μg/mL to 16 μg/mL.
(§4) 3. Plates were incubated in an anaerobic chamber at 35° C. for 48 hours. For the Lactobacillus strains, Mueller Hinton Agar and an incubation atmosphere of 5% CO2 were used.
(§5) 4. The lowest concentration of an antibiotic showing no growth or marked reduction in growth was read as the MIC.

[10] = system: Clostridium difficile, ATCC 700057; assay: MIC, agar dilution method; format: cell-based; conditions: Clostridioides difficile, ATCC700057
Description: as §1, §2, §3, §4, §5

[11] = system: Streptococcus pyogenes, ATCC 19615; assay: MIC, microbroth dilution method
[12] = system: gram positive bacteria (C. difficile, C. perfringenes, B. longum, F. magna, P. asaccharolyticus, P. anaerobius, M. micros, L. casei); format: cell-based
[13] = system: Clostridium perfringens, ATCC 13124; assay: microbe, parasite or virus in culture; format: cell-based; conditions: ATCC13124
[14] = system: Finegoldia (formerly Peptococcus) magna, ATCC 29328; assay: MIC, agar dilution method; format: cell-based; conditions: Finegoldia magna ATCC 29328
[15] = system: ORG 84 E. faecium ATCC 700221 VRE; assay: MIC, aerobic panel, microbroth dilution method; conditions: Enterococcus faecium, read-out: Aerobic Panel MIC
[16] = system: Staphylococcus aureus, ATCC 33591 (Methicilin resistant); assay: MIC, microbroth dilution method
[17] = system: Lactobacillus acidophilus, ATCC 4356; assay: MIC, agar dilution method; format: cell-based; conditions: ATCC4356
[18] = system: Streptococcus pneumoniae, ATCC 49619; assay: MIC, microbroth dilution method; conditions: ATCC49619
[19] = system: Staphylococcus aureus, ATCC 29213; assay: MIC, microbroth dilution method
[20] = system: ORG 83 E. faecalis ATCC 29212; assay: MIC, aerobic panel, microbroth dilution method; conditions: Enterococcus faecalis, ATCC29212, read-out: Aerobic Panel MIC
[21] = system: Bifidiobacterium longum, ATCC 15707; assay: MIC, agar dilution method; format: cell-based; conditions: Table 1 gram positive GI flora
[22] = system: Peptoniphilus (formerly Peptococcus) asaccharolyticus, ATCC 29743; assay: MIC, agar dilution method; format: cell-based; conditions: Peptoniphilus asaccharolyticus ATCC 29743
[23] = system: Enterococcus faecium, Vancomycin resistant clinical strain ORG#360; assay: MIC, microbroth dilution method
[24] = system: ORG 99 S. epidermidis ATCC 12228; assay: MIC, aerobic panel, microbroth dilution method; conditions: Staphylococcus epidermidis, ATCC12228, read-out: Aerobic Panel MIC
[25] = system: Micromonas (formerly Peptostreptococcus) micros, ATCC 33270; assay: MIC, agar dilution method; format: cell-based; conditions: Parvimonas micra, ATCC33270; Micromonas micros ATCC 33270
[26] = system: Peptostreptococcus anaerobius, ATCC 27337; assay: MIC, agar dilution method; format: cell-based; conditions: ATCC27337
[27] = system: Enterococcus faecium, Vancomycin resistant clinical strain ORG#364; assay: MIC, microbroth dilution method
[28] = system: Enterococcus faecium, ATCC 19434; assay: MIC, microbroth dilution method
[29] = system: Lactobacillus. casei, ATCC 393; assay: MIC, agar dilution method; format: cell-based; conditions: Lacticaseibacillus casei, ATCC393
[30] = system: Enterococcus faecium, Vancomycin resistant clinical strain ORG#534; assay: MIC, microbroth dilution method
[31] = system: Staphylococcus epidennidis, clinical strain ORG#365; assay: MIC, microbroth dilution method

SMILES: CCc1c(Cl)c(O)c(Cl)c(O)c1C(=O)O[C@H]1[C@H](O)[C@H](OC)[C@H](OC/C2=C\C=C\C[C@H](O)/C(C)=C/[C@H](CC)[C@@H](O[C@@H]3OC(C)(C)[C@@H](O)[C@H](O)[C@@H]3O)/C(C)=C/C(C)=C/C[C@@H]([C@@H](C)O)OC2=O)O[C@@H]1C [Formula II]
- levels detected in plasma [1]: most of which fell below the limit of quantification
- MIC [2]: > 16 µg/mL
- MIC ([3]; Lacticaseibacillus rhamnosus, ATCC7496, L. rhamnosus, read-out: MIC): > 16 µg/mL
- MIC ([3]; Lactobacillus rhamnosus ATCC 7496): >16 µg/mL
- MIC [4]: > 64 µg/mL
- solubility [5]: ~300 mg/mL
- MIC [6]: > 16 µg/mL
- Fold increase in MIC ([7]; Brucella broth with feces vs Brucella broth only, C. difficile ATCC 700057): 4x
- activity against C. difficile compared with vancomycin ([7]; C. difficile): as active as vancomycin
- fold increase in MIC values in the presence of 5% fecal material ([7]; C. difficile ATCC strain 700057): four fold
- MIC ([7]; ATCC700057, C. difficile ATCC strain 700057, read-out: MIC in the presence of 5% fecal material): 4 µg/mL
- MIC ([7]; ATCC700057, Diluent Brucella broth only, C. difficile ATCC 700057, read-out: MIC): 1 µg/mL
- MIC ([7]; ATCC700057, Diluent Brucella broth with feces (5% fecal slurry), C. difficile ATCC 700057, read-out: MIC): 4 µg/mL
- MIC [8]: > 16 µg/mL
- MIC [9]: 4 µg/mL
- MIC ([10]; Clostridium difficile ATCC 700057, Table 1 gram positive GI flora, read-out: MIC): 2 µg/mL
- MIC ([10]; ORG 830 C. difficile ATCC 700057, Table 3, read-out: MIC, panel of anaerobic bacteria): 0.5 to 1 µg/mL
- MIC ([11]; ATCC19615): > 64 µg/mL
- MIC ([11]; ATCC19615, read-out: Aerobic Panel MIC): > 32 µg/mL
- MIC values relative to those of OPT-80 [12]: four to sixteen fold greater
- MIC [13]: 1 µg/mL
- MIC [14]: 8 µg/mL
- MIC [15]: > 32 µg/mL
- MIC ([16]; ATCC33591): > 64 µg/mL
- MIC ([16]; ATCC33591 / MRSA, read-out: Aerobic Panel MIC): > 64 µg/mL
- MIC [17]: > 16 µg/mL
- MIC [18]: > 64 µg/mL
- MIC ([19]; ATCC29213): > 64 µg/mL
- MIC ([19]; ATCC29213 / MSSA, read-out: Aerobic Panel MIC): > 64 µg/mL
- MIC [20]: 16 to 64 µg/mL
- MIC [21]: 1 µg/mL
- MIC [22]: 4 µg/mL
- MIC [23]: > 64 µg/mL
- MIC [24]: > 32 µg/mL
- MIC [25]: 1 µg/mL
- MIC [26]: 0.25 µg/mL
- MIC [27]: 64 µg/mL
- MIC ([28]; ATCC19434): > 64 µg/mL
- MIC ([28]; ATCC19434, read-out: Aerobic Panel MIC): > 64 µg/mL
- MIC [29]: 8 µg/mL
- MIC [30]: > 64 µg/mL
- MIC [31]: 64 µg/mL

SMILES: CN[C@H](CC(C)C)C(=O)N[C@H]1C(=O)N[C@@H](CC(N)=O)C(=O)N[C@H]2C(=O)N[C@H]3C(=O)N[C@H](C(=O)N[C@H](C(=O)O)c4cc(O)cc(O)c4-c4cc3ccc4O)[C@H](O)c3ccc(c(Cl)c3)Oc3cc2cc(c3O[C@@H]2O[C@H](CO)[C@@H](O)[C@H](O)[C@H]2O[C@H]2C[C@](C)(N)[C@H](O)[C@H](C)O2)Oc2ccc(cc2Cl)[C@H]1O [Vancomycin, reference compound]
- Fold increase in MIC [7]: 4x
- fold increase in MIC values in the presence of 5% fecal material [7]: four fold
- MIC ([7]; ATCC700057, read-out: MIC in the presence of 5% fecal material): 8 µg/mL
